Data published in PMC8251996 (2021).

Assays:
ds6 (DNA, duplex) CGTACG = assay: fluorescence titration, independent equivalent sites; settings: Na+ (100 mM NaCl, 10 mM sodium phosphate); buffer not in material
[1] = test system: ds10 (DNA, duplex) AAGAATTCTT; assay: as above; settings: Na+ (100 mM NaCl, 10 mM sodium phosphate); buffer not in material

K b (ds6 (DNA, duplex) CGTACG)	K b [1]	SMILES
(1.2±0.5)×10^6 M^-1	(1.6±0.9)×10^6 M^-1	COc1cc(/C=C/c2ccc(O)cc2)cc(OC)c1
(1.6±1.4)×10^6 M^-1	(1.6±1.3)×10^6 M^-1	Oc1ccc(/C=C/c2cc(O)cc(O)c2)cc1
